Measurements as given in patent US20210348125A1, “INDUCED STEM MEMORY T CELLS AND METHODS OF USE THEREOF” (Augusta University Research Institute, Inc., priority 2017, published 2021).

Legend:
[1] = tested on: Abl1, AKT3, c-RAF, CamK1, CDK2, c-Met; conditions: cited from earlier work
pMel-1 CD8^+ T-cells [2] = assay: Antigen re-challenge (recall response) of activated CD8+ T-cells; format: cell-based, mouse; conditions: re-challenge with gp100 peptide 72 hrs; vs untreated
Source text: FIGS. 4A-4C show FACS analysis of memory phenotype of activated cells (gp100 vs gp100 +MEKi) after antigen (Ag) re-challenge with gp100 peptide for 72 hrs. […]. FIGS. 4M-4O show the scheme of ACT of B16 tumor-bearing mice with respectively activated CD8^+ T-cells as indicated FIG. 4M, estimation of tumor volume FIG. 4N and percent survival FIG. 4O in treated groups. FIGS. 4P-4R show the estimation of numbers of adoptively transferred cells in spleens of treated mice 30 days after ACT as indicated. For the untreated (UT) and control (CTX) groups where the endpoint for euthanasia was reached earlier, the mice were sacrificed and spleens harvested and stored as single-cell suspensions at −80° C. At the end of the study, all samples were stained and processed together for FACS analysis. Representative of two experiments is shown. *P<0.05, **P<0.01, ***P<0.001.
Cell activation, drug treatment and adoptive transfer. FACS-sorted CD8^+ cells from pMel-1 mice were activated with gp100 peptide ([…] (SEQ ID NO:2); 1 μM/10^6 cells/mL) either alone or in combination with MEKi (500-1000 nM) in T-cell medium supplemented with 30 units of IL2 for 48 hours unless otherwise stated. In some experiments, at 48 h cells were washed and re-incubated in IL2-containing medium supplemented with gp100 and/or anti-OX40-Ab for 72 hours. […]

pMel-1 CD8^+ T-cells [3] = assay: In vitro activation of pMel-1 CD8+ T-cells with gp100 peptide with or without MEKi; format: cell-based, mouse
Experimental: Mice and cell culture. 4-6-week-old C57BL/6 mice (wild-type (WT) and pMel-1) from Jackson Laboratory or in-house bred pMel-1 mice with transgenic CD8^+ T-cells having TCR from melanoma-specific gp10025-33 peptide were used as outlined in various experiments. Animals had free access to water and food. All experiments were performed under protocols approved by the Augusta University Georgia Cancer Center Institutional Animal Care and Use Committee (IACUC). Cancer cell lines used in the present study included TC1 (kindly provided by Dr. T-C Wu at Johns Hopkins University) and B16-melanoma (obtained from American Type Culture Collection (ATCC)). […] Primary murine CD8^+ cells were isolated by fluorescence-activated cell sorting (FACS) and in some cases by negative selection using magnetic beads (Miltenyi Biotec) and cultured in RPMI 1640 medium supplemented with 10% FBS, 2 mM glutamine, 10 mM HEPES and 55 μM β-mercaptoethanol. […]
Flow cytometry analyses. […] TMRM (Tetramethylrhodamine, methyl ester) is a cell-permeant, cationic, red-orange fluorescent dye that is readily sequestered by active mitochondria and has been used for estimation of mitochondrial potential was used as described before (Sukumar, M., et al., Cell Metabolism, 23: 63-76 (2016)). […]
Metabolic assays. […] OCR and ECAR were measured with an XFp flux analyzer (Seahorse Bioscience). […]

AB1-HA tumor model = conditions: CTX treatment at Day 9; cited from earlier work
MEK1 = MEK1 (Homo sapiens, UniProt Q02750); conditions: cited from earlier work
Sequence of MEK1 (Q02750 whole entry, species assumed): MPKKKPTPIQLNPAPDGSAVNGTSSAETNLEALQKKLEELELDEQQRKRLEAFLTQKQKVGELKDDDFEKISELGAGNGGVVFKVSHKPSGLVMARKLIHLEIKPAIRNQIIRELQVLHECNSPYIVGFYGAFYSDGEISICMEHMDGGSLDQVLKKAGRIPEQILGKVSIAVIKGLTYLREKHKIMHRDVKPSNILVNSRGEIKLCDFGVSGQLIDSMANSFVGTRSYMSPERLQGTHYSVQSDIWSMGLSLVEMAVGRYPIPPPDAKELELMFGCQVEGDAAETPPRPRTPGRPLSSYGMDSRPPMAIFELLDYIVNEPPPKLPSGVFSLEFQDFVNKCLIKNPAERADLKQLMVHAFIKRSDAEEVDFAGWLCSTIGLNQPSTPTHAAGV

ERK1 or ERK2 = conditions: cited from earlier work

Cn1c(=O)c(F)c(Nc2ccc(I)cc2F)c2c(=O)n(C[C@@H](O)CO)cnc21 [TAK-733]
activity on Abl1, AKT3, c-RAF, CamK1, CDK2, c-Met, etc. [1]: inactive

Cn1cnc2c(F)c(Nc3ccc(Br)cc3Cl)c(C(=O)NOCCO)cc21 [Selumetinib]
recall response, expansion of terminal effector cells (CD62L-CD44+) (pMel-1 CD8^+ T-cells [2]): more than 2.5 fold

CC[C@H]1/C=C/C=C/C[C@@H](C)[C@H](O)[C@@](C)(O)C(=O)[C@@H](C)[C@H](O)[C@@H](C)C(=O)[C@@H](C)[C@H](O)[C@@H](C)/C=C/C(=O)O[C@@H]2[C@H](C)[C@H](CC1)O[C@]1(CC[C@H](C)[C@H](C[C@@H](C)O)O1)[C@H]2C [oligomycin]
proliferation of MEKi-treated CD8+ T-cells with oligomycin (pMel-1 CD8^+ T-cells [3]; gp100 activated, MEKi-treated cells): inhibition of proliferation

CCOC(=O)[C@@]1(CCCCCCOc2ccc(Cl)cc2)CO1 [etomoxir]
cell proliferation of MEKi-treated pMel-1 CD8+ T-cells in the presence of etomoxir (pMel-1 CD8^+ T-cells [3]): significant decrease in cell proliferation

O=P1(N(CCCl)CCCl)NCCCO1 (stereo not shown) [CTX, Cyclophosphamide]
cure rate (AB1-HA tumor model): 75%

COc1cccc(-c2cc(=O)c3ccccc3o2)c1N [PD98059]
MEK-1-mediated activation of MAPK (MEK1): specifically inhibits
direct inhibition of ERK1 or ERK2 (ERK1 or ERK2): does not directly inhibit
